Reference: patent US20240100021A1, “Combination Therapy Schedules to Treat Cancer” (priority 2021, published 2024)
Where two headings read alike, the source gives them in different places.

Tests used:
double-stranded DNA = conditions: physiological conditions; cited from earlier work
[1] = animals; cited from earlier work
[2] = patients receiving the drug (Myers et al. 1984); cited from earlier work
[3] = cited from earlier work
MOLM14 cells = test: MTT cell proliferation assay; format: cell-based; conditions: 48 hrs, 0.038 μM Bis, 0.45 uM Ara-C, 6.3 nM ABT199, alone or combined, versus control
OCI-AML3 cells = test: MTT cell proliferation assay; format: cell-based; conditions: continuous exposure 48 hrs, 0.038 μM Bis, 0.26 μM Ara-C, 0.3 μM ABT199, 14 nM Clad, alone or combined, versus control cells
[4] = cited from earlier work; remark: listed apart in the source
[5] = system: tumor-cytostatic macrophages; conditions: activation of tumor-cytostatic macrophages (Wang et al. 1984); cited from earlier work
[6] = cited from earlier work; remark: listed apart in the source
[7] = system: PARP1 and caspase 3 cleavage in MOLM14 cells; test: Western blot of apoptosis markers; format: cell-based; conditions: 48 hrs
[8] = isolated human hepatocytes, in vitro; cited from earlier work
[9] = cited from earlier work; remark: listed apart in the source
[10] = predominantly to albumin; cited from earlier work
[11] = cited from earlier work; remark: listed apart in the source
[12] = cited from earlier work; remark: listed apart in the source
[13] = cancer patients, cited from earlier work
[14] = 90 min infusion, 260 mg/m^2, biphasic elimination
[15] = 5 day schedule of 60 min infusions
[16] = three phases of elimination (Alberts et al. 1983)
[17] = trial with doses of 80-250 mg/m^2
[18] = triphasic elimination, first of three single dose studies
[19] = triphasic elimination, last of three single dose studies
[20] = triphasic elimination, second of three single dose studies
[21] = pediatric ALL or AML, 52 mg/m^2, noncompartmental analysis
[22] = hairy cell leukemia, 0.09 mg/kg/day continuous intravenous infusion over 7 days

## C(=N\NC1=NCCN1)/c1c2ccccc2c(/C=N/NC2=NCCN2)c2ccccc12.Cl.Cl [Bis, 9,10-anthracenedicarboxaldehyde bis[(4,5-dihydro-1H-imidazol-2-yl)hydrazine] dihydrochloride]
double-stranded DNA
  affinity constants: above 10^6 M^−1
[1]
  cardiotoxicity: not cardiotoxic
[2]
  ejection fraction, radioangiocardiographic monitoring: no decrease in ejection fraction
  electrocardiographic changes: No patients experienced electrocardiographic changes
[3]
  bound to plasma proteins: More than 95%
MOLM14 cells
  cell proliferation: 79%
OCI-AML3 cells
  cell proliferation: 80%
[4]; 72-hr infusion study, dose 56 mg/m^2
  plasma concentration: 12 ± 6 ng/mL
[4]; 72-hr infusion study, dose 260 mg/m^2
  plasma concentration: 55 ± 8 ng/mL
[4]; 72-hr infusion study
  plasma clearance: 1306±179 ml/min/m^2
[4]; 72-hr infusion study, in 24 hr
  urinary excretion of the dose: 4.6%
[4]; 90 min infusion, 260 mg/m^2, after 24 hr
  administered dose excreted unchanged in the urine: 11.3%
[4]; [14]
  initial half-life: 1.08 ± 0.25 h
  terminal half-life: 19.03 ± 3.77 h
[4]; 90 min infusion, 260 mg/m^2
  plasma clearance: 735 ml/min/m^2
  steady state volume of distribution (Vdss): 1845 L/m^2
[4]; [15]
  dose excreted in the urine: 7.1%
  t½ α: 0.9 h
  t½ β: 9.7 h
[4]; human, in vivo
  dose excreted in the urine: Less than 7%
[4]; intravenous dose 260 mg/m^2
  area under the plasma concentration x time curve: 4400 µg·h/mL
[4]; intravenous dose 340 mg/m^2
  area under the plasma concentration x time curve: 5700 µg·h/mL
[4]; one report, interpreted as tissue sequestration
  volume of distribution: 687 L/m^2
[4]; [16]
  beta phase of elimination: approximately 1.5 hours
  initial distributive phase of elimination: 6 min
[4]; trial with doses of 80-250 mg/m^2, after 96 hr
  administered dose found in the urine: 3.4±1.1%
[4]; [17]
  calculated volume of distribution: 42.1 ± 5.9 L/kg
  clearance: 17.425 ± 0.85 mL/min/kg
  initial half-life: 0.6 h
  terminal half-life: 24.7 h
[4]; [18]
  t½ α: 0.0573 h
  t½ β: 1.33 h
  t½ γ: 26.13 h
[4]; [19]
  t½ α: 0.1 h
  t½ β: 1.9 h
  t½ γ: 43.9 h
[4]; [20]
  t½ α: 0.05 h
  t½ β: 1 h
  t½ γ: 8 h
[5]
  minimal effective in vivo dose: 25 mg/kg
[6]; daily×5, repeat every 4 weeks (Spiegel et al. 1982)
  maximally tolerated dose: 80 mg/m^2
[6]; monthly (every 3-4 week) (Von Hoff et al., 1981b)
  maximally tolerated dose: 260 mg/m^2
[6]; monthly, patients with poor bone marrow reserve (Von Hoff et al., 1981b)
  maximally tolerated dose: 240 mg/m^2
[6]; weekly×3 (Alberts et al. 1982)
  maximally tolerated dose: 200 mg/m^2
[6]; weekly×3, patients with poor bone marrow reserve (Alberts et al. 1982)
  maximally tolerated dose: 150 mg/mg^2
[6]; weekly×3, repeat every 4-5 week (B.-S. Yap et al. 1982)
  maximally tolerated dose: 150 mg/m^2

## ABT199
MOLM14 cells
  cell proliferation: 77%
[7]
  cleavage of PARP1 and caspase 3: caused cleavage of PARP1
OCI-AML3 cells
  cell proliferation: 79%

## Nc1nc(Cl)nc2c1ncn2[C@@H]1O[C@H](CO)[C@@H](O)[C@@H]1F [clofarabine, 2-Chloro-9-(2-deoxy-2-fluoro-beta-D-arabinofuranosyl)-9H-purin-6-amine]
[8]
  metabolism: 0.2%
[9]; 24-hour urine collections, pediatric studies
  dose excreted in the urine unchanged: 49-60%
[9]; [21]
  systemic clearance: 28.8 L/h/m^2
  volume of distribution at steady-state: 172 L/m^2
[9]; pediatric ALL or AML, 52 mg/m^2
  terminal half-life: 5.2 h
[10]
  bound to plasma proteins: 47%

## Nc1nc(Cl)nc2c1ncn2[C@H]1C[C@H](O)[C@@H](CO)O1 [Clad, 2-chloro-6-amino-9-(2-deoxy-β-D-erythropentofuranosyl) purine]
[11]; 2 hour infusion 0.12 mg/kg, normal renal function
  mean terminal half-life: 5.4 h
[11]; 2 hour infusion 0.12 mg/kg
  mean clearance: 16.3 ± 7.03 mL/min/kg
  mean steady-state volume of distribution: 4.5 ± 2.8 L/kg
[11]; after intravenous administration, multi-exponential decline
  average half-life: 6.7 ± 2.5 h
[11]; [22]
  mean steady-state serum concentration: 5.7 ng/mL
  systemic clearance: 11.06 mL/min/kg
[11]; hematologic malignancies, 2 hour infusion 0.12 mg/kg
  mean end-of-infusion plasma concentration: 48 ± 19 ng/mL
[11]; human, in vivo
  apparent volume of distribution: approximately 9 L/kg
[11]; one report
  cerebrospinal fluid concentrations relative to plasma: approximately 25%
OCI-AML3 cells
  cell proliferation: 87%

## Nc1ccn([C@@H]2O[C@H](CO)[C@@H](O)[C@@H]2O)c(=O)n1 [Ara-C, 1β-arabinofuranosylcytosine]
MOLM14 cells
  cell proliferation: 89%
OCI-AML3 cells
  cell proliferation: 76%
[12]; after the distributive phase
  plasma radioactivity accounted for by inactive metabolite ara-U: more than 80%
[12]; intravenous, biphasic elimination
  half-life of initial distributive phase: about 10 minutes
[12]; within 24 hours
  share of urinary radioactivity excreted as ara-U: approximately 90%

## Nc1nc(F)nc2c1ncn2[C@@H]1O[C@H](CO)[C@@H](O)[C@@H]1O [2-fluoro-ara-A]
[13]; 5-day treatment schedule, 25 mg 2-fluoro-ara-AMP/m^2 daily over 30 minutes
  factor of increase of plasma trough levels: about 2
[13]
  terminal half-life: approximately 20 hours
